Our source for the IC50 values is patent US20240293392A1, “INHIBITOR COMPOUNDS” (NeoPhore Limited, priority 2021, published 2024).

pIC50: −log10 of the molar value.

Assay [1] concerns the target T1, recombinant N-terminal MLH1 (residues 15-340) (Homo sapiens, UniProt P40692).
T1 construct: recombinant N-terminal MLH1 (residues 15-340)
T1 sequence (P40692 15-340): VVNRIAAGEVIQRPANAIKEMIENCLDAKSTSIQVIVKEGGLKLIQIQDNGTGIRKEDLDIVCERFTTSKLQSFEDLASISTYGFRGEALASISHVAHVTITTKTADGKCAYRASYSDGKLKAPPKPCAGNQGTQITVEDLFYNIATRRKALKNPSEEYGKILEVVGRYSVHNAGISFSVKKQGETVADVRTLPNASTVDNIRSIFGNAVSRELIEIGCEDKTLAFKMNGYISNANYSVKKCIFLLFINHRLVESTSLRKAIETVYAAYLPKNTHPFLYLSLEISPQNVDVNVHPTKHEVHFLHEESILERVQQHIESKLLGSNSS
The experiment in a line: Fluorescence Polarisation Assay for MLH1. Type of assay: binding. The note with it: fluorescence polarisation probe displacement; 100 nM N-terminal MLH1, 5 nM probe compound. How it is done:
Fluorescence Polarisation Assay for MLH1
Test compounds, as 10 mM DMSO stocks, were dispensed into a 384-well Low Flange Black Flat Bottom Polystyrene Non-binding Surface plate (Corning®, item number 3575) using a Labcyte Echo acoustic liquid handler. Test compounds were added to wells in columns 1-22 whilst DMSO was added to wells in columns 23 and 24 in order to normalise the plate. 20 μL of a 2× solution (200 nM) of recombinant N-terminal MLH1 (residues 15-340) in assay buffer (25 mM HEPES, pH 7.5, 250 mM NaCl, 10 mM MgCl2, 0.01% Triton X-100, 5 mM dithiothreitol) was added to all wells in columns 1-23 and 20 μL assay buffer was added to all wells in column 24 using an E1-ClipTip pipette (ThermoFisher). Plates were centrifuged for 1 minute at 250×g and were incubated at room temperature for 30 minutes prior to the addition of 20 μL of 2× (10 nM) 5-((5-(4-((2-(2,4-dihydroxy-5-isopropylbenzoyl)isoindolin-5-yl)methyl)piperazin-1-yl)pentyl)carbamoyl)-2-(6-(dimethylamino)-3-(dimethyliminio)-3H-xanthen-9-yl)benzoate in assay buffer (prepared from a 1 mM DMSO stock) with an E1-ClipTip pipette (ThermoFisher). The final concentration of N-terminal MLH1 was 100 nM and the final concentration of the probe compound was 5 nM. Compound plates were centrifuged for 1 minute at 250×g for 1 minute and immediately read on a PheraStar FSX (fitted with 384-well aperture spoon and 590 675 675 FP optic module). The gain and focus were adjusted before each plate was read so that the polarisation of a no enzyme control (column 24) was equal to 35 mP. Data were normalised against the no inhibitor controls (column 23) and no enzyme controls (column 24).
For orientation: Fluorescence polarisation rises when a labelled molecule tumbles more slowly, as on binding a larger partner.

For assay [2], the target named is T2, recombinant N-terminal PMS2 (residues 1-365) (Homo sapiens, UniProt P54278).
T2 construct: recombinant N-terminal PMS2 (residues 1-365)
T2 sequence (P54278 1-365): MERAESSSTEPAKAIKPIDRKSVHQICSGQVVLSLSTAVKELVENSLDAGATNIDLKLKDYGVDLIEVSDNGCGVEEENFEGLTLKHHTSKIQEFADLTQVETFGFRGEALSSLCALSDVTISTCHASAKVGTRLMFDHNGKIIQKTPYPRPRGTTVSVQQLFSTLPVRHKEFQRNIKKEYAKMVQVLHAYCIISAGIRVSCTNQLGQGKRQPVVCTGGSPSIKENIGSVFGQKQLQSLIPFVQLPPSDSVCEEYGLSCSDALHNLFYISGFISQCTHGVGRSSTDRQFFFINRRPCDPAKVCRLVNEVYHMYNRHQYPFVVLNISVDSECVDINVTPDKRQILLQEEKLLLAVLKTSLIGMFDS
The experiment in a line: Fluorescence Polarisation Assay for PMS2. It counts as binding. Particulars: fluorescence polarisation probe displacement; 10 nM N-terminal PMS2, 5 nM probe compound; read-out: PMS2 IC50. As to the method:
Fluorescence Polarisation Assay for PMS2
For single point screening, test compounds were added to wells in columns 1-22 whilst DMSO was added to wells in columns 23 and 24 in order to normalise the plate. For potency determination, serial dilutions of test compounds were added to wells in columns 3-22 and DMSO volume was normalised across the plate.
20 μL assay buffer was added to all wells in columns 1 and 24 (column 24 only for single point screening) using a MultiDrop Combi (ThermoFisher). Plates were centrifuged for 1 minute at 250×g and were incubated at room temperature for 30 minutes prior to the addition of 20 μL of 2× (20 nM) of 5-((5-(4-((2-(2,4-dihydroxy-5-isopropylbenzoyl)isoindolin-5-yl)methyl)piperazin-1-yl)pentyl)carbamoyl)-2-(6-(dimethylamino)-3-(dimethyliminio)-3H-xanthen-9-yl)benzoate (referred to hereinafter as “probe compound”) in assay buffer (prepared from a 100 μM DMSO stock) with a MultiDrop Combi (ThermoFisher). The final concentration of N-terminal PMS2 was 10 nM and the final concentration of probe compound was 5 nM.
Compound plates were centrifuged for 1 minute at 250×g for 1 minute and were incubated at room temperature for 1 hour before being read on a PheraStar FSX (fitted with 384-well aperture spoon and 540 590 590 FP optic module). The gain and focus were adjusted before each plate was read so that the polarisation of a no enzyme control (column 24) was equal to 35 mP. Data were normalised against the no inhibitor controls (column 23) and no enzyme controls (column 24).

`O=C(c1c(O)cc(O)cc1OCc1ccccc1)N1CCc2cccc(NC3CCS(=O)(=O)C3)c2C1` (stereo not shown) [Example 147, (2-(Benzyloxy)-4,6-dihydroxyphenyl)(8-((1,1-dioxidotetrahydrothiophen-3-yl)amino)-3,4-dihydroisoquinolin-2(1H)-yl)methanone]: the pIC50 in assay [1] was over 6.00; in assay [2], 5.00 to 6.00.
The corresponding values for `N#CC1CC(Oc2cccc3c2CN(C(=O)c2c(O)cc(O)cc2OCc2ccccc2)C3)C1` (stereo not shown) [Example 5, 3-((2-(2-(Benzyloxy)-4,6-dihydroxybenzoyl)isoindolin-4-yl)oxy)cyclobutane-1-carbonitrile] are 5.00 to 6.00 and 5.00 to 6.00.
Take `CN(C)Cc1cc2c(c(N[C@H]3CCOC3)c1)CN(C(=O)c1c(O)cc(O)cc1OCc1ccccc1)CC2` [Example 125, (S)-(2-(Benzyloxy)-4,6-dihydroxyphenyl)(6-((dimethylamino)methyl)-8-((tetrahydrofuran-3-yl)amino)-3,4-dihydroisoquinolin-2(1H)-yl)methanone]: the negative logarithm of the IC50 (pIC50) in assay [1] and in assay [2] was over 6.00 in each case.
For the compound `CN1CCN(Cc2cccc3c2CN(C(=O)c2c(O)cc(O)cc2OCc2ccccc2)C3)CC1` [Example 9, (2-(Benzyloxy)-4,6-dihydroxyphenyl)(4-((4-methylpiperazin-1-yl)methyl)isoindolin-2-yl)methanone], the pIC50 in assay [1] and in assay [2] was 5.00 to 6.00 in each case.
In the case of `O=C(c1c(O)cc(O)cc1OCc1ccccc1)N1Cc2cccc(NCc3cocn3)c2C1` [Example 20, (2-(Benzyloxy)-4,6-dihydroxyphenyl)(4-((oxazol-4-ylmethyl)amino)isoindolin-2-yl)methanone], the pIC50 in assay [1] is over 6.00; in assay [2], 5.00 to 6.00.
On the same counts, the results for `Cn1cc(Nc2cccc3c2CN(C(=O)c2c(O)cc(O)cc2OCc2ccccc2)CC3)ccc1=O` [Example 135, 5-((2-(2-(Benzyloxy)-4,6-dihydroxybenzoyl)-1,2,3,4-tetrahydroisoquinolin-8-yl)amino)-1-methylpyridin-2(1H)-one] are over 6.00 and 5.00 to 6.00.
On the same counts, the results for `O=C(c1c(O)cc(O)cc1OCc1ccccc1)N1CCc2cccc(Nc3cnccn3)c2C1` [Example 119, (2-(Benzyloxy)-4,6-dihydroxyphenyl)(8-(pyrazin-2-ylamino)-3,4-dihydroisoquinolin-2(1H)-yl)methanone] are 5.00 to 6.00 and 5.00 to 6.00.
For the compound `COc1ccc2c(c1)CCN(C(=O)c1c(O)cc(O)cc1OCc1ccccc1)C2` [Example 48, (2-Benzyloxy-4,6-dihydroxy-phenyl)-(6-methoxy-3,4-dihydro-1H-isoquinolin-2-yl)methanone], the pIC50 in assay [1] and in assay [2] was 5.00 to 6.00 throughout.
For the compound `O=C(c1c(O)cc(O)cc1OCc1cccnn1)N1Cc2cccc(NC3CCOC3)c2C1` (stereo not shown) [Example 99, (2,4-Dihydroxy-6-(pyridazin-3-ylmethoxy)phenyl)(4-((tetrahydrofuran-3-yl)amino)isoindolin-2-yl)methanone], the pIC50 was 5.00 to 6.00 in assay [1] and under 5.00 in assay [2].
The corresponding values for `O=C(c1c(O)cc(O)cc1OCc1ccccc1)N1Cc2cccc(CNC3COC3)c2C1` [Example 81, (2-(Benzyloxy)-4,6-dihydroxyphenyl)(4-((oxetan-3-ylamino)methyl)isoindolin-2-yl)methanone] are 5.00 to 6.00 and 5.00 to 6.00.
On the same counts, the results for `Cn1ncc(Nc2cccc3c2CN(C(=O)c2c(O)cc(O)cc2OCc2ccccc2)C3)n1` [Example 35, (2-(Benzyloxy)-4,6-dihydroxyphenyl)(4-((2-methyl-2H-1,2,3-triazol-4-yl)amino)isoindolin-2-yl)methanone] are over 6.00 and 5.00 to 6.00.
On the same counts, the results for `N#CC1CN(c2cccc3c2CN(C(=O)c2c(O)cc(O)cc2OCc2ccccc2)C3)C1` [Example 92, 1-(2-(2-(Benzyloxy)-4,6-dihydroxybenzoyl)isoindolin-4-yl)azetidine-3-carbonitrile] are 5.00 to 6.00 and 5.00 to 6.00.
On to `O=C(c1c(O)cc(O)cc1OCc1ccc(F)c(F)c1)N1Cc2cccc(NC3CCOC3)c2C1` (stereo not shown) [Example 38, (2-((3,4-Difluorobenzyl)oxy)-4,6-dihydroxyphenyl)(4-((tetrahydrofuran-3-yl)amino)isoindolin-2-yl)methanone], for which the pIC50 in assay [1] was over 6.00; in assay [2], 5.00 to 6.00.
The corresponding values for `O=C(c1c(O)cc(O)cc1OCc1ccccc1)N1Cc2cccc(Nc3cncnc3)c2C1` [Example 19, (2-(Benzyloxy)-4,6-dihydroxyphenyl)(4-(pyrimidin-5-ylamino)isoindolin-2-yl)methanone] are over 6.00 and over 6.00.
The corresponding values for `CN(C)Cc1ccc2c(c1)CN(C(=O)c1c(O)cc(O)cc1OCc1ccccc1)CC2` [Example 47, (2-Benzyloxy-4,6-dihydroxy-phenyl)-[7-[(dimethylamino)methyl]-3,4-dihydro-1H-isoquinolin-2-yl]methanone] are 5.00 to 6.00 and 5.00 to 6.00.
For `O=C(c1c(O)cc(O)cc1OCc1ccccn1)N1CCc2cccc(N[C@H]3CCOC3)c2C1` [Example 55, (S)-(2,4-Dihydroxy-6-(pyridin-2-ylmethoxy)phenyl)(8-((tetrahydrofuran-3-yl)amino)-3,4-dihydroisoquinolin-2(1H)-yl)methanone], the pIC50 in assay [1] is over 6.00; in assay [2], 5.00 to 6.00.
Turning to `O=C(c1c(O)cc(O)cc1OCc1ccccc1)N1CCc2cccc(Nc3ccnnc3)c2C1` [Example 120, (2-(Benzyloxy)-4,6-dihydroxyphenyl)(8-(pyridazin-4-ylamino)-3,4-dihydroisoquinolin-2(1H)-yl)methanone], the pIC50 in assay [1] was over 6.00; in assay [2], 5.00 to 6.00.
On the same counts, the results for `CNc1cc(OCCOC)cc2c1CN(C(=O)c1c(O)cc(O)cc1OCc1ccccc1)CC2` [Example 128, (2-(Benzyloxy)-4,6-dihydroxyphenyl)(6-(2-methoxyethoxy)-8-(methylamino)-3,4-dihydroisoquinolin-2(1H)-yl)methanone] are 5.00 to 6.00 and 5.00 to 6.00.
The corresponding values for `O=C(c1c(O)cc(O)cc1OCc1ccccc1)N1Cc2cccc(Nc3cn[nH]c3)c2C1` [Example 34, (4-((1H-Pyrazol-4-yl)amino)isoindolin-2-yl)(2-(benzyloxy)-4,6-dihydroxyphenyl)methanone] are over 6.00 and 5.00 to 6.00.
On the same counts, the results for `Cn1cc(Nc2cccc3c2CN(C(=O)c2c(O)cc(O)cc2OCc2ccccc2)C3)cn1` [Example 21, (2-(Benzyloxy)-4,6-dihydroxyphenyl)(4-((1-methyl-1H-pyrazol-4-yl)amino)isoindolin-2-yl)methanone] are 5.00 to 6.00 and 5.00 to 6.00.

In general, pIC50 refers to the negative decadic logarithm of the IC50, by convention in mol/L.
